Reference: patent US11613546B2, “Substituted pyridotriazine compounds and uses thereof” (Gilead Sciences, Inc., priority 2021, dated 2023)
pEC50: −log10 of the molar value. Read-outs that look alike come from different tables or passages of the source.

Experiments:
Format in all cases: cell-based
[1] = tested on: HIV-1 (IIIB); assay: Antiviral assay in MT-4 cells; conditions: HIV-1 IIIB infected MT-4 cells, 5 days, Cell Titer Glo, read-out: MT4 EC50
Experimental: Antiviral Assay in MT-4 Cells
(§1) Compounds were tested in a high-throughput 384-well assay format for their ability to inhibit the replication of HIV-1 (IIIB) in MT-4 cells. Compounds were serially diluted (1:3) in DMSO on 384-well polypropylene plates and further diluted 200-fold into complete RPMI media (10% FBS, 1% P/S) using the Biotek Micro Flow and Labcyte ECHO acoustic dispenser. Each plate contained up to 8 test compounds, with negative (No Drug Control) and 5 μM AZT positive controls. MT-4 cells were pre-infected with 10 μL of either RPMI (mock-infected) or a fresh 1:250 dilution of HIV-1 IIIB concentrated virus stock. Infected and uninfected MT-4 cells were further diluted in complete RPMI media and added to each plate using a Micro Flow dispenser. After 5 days incubation in a humidified and temperature controlled incubator (37° C.), Cell Titer Glo (Promega) was added to the assay plates and chemiluminescence read using an Envision plate-reader. EC50 values were defined as the compound concentration that causes a 50% decrease in luminescence signal, and were calculated using a sigmoidal dose-response model to generate curve fits.

[2] = tested on: MT-4 cells; assay: Cytotoxicity assay in MT-4 cells; conditions: uninfected MT-4 cells, 5 days, Cell Titer Glo; read-out: CC50
Experimental: as §1, with “fits. Cytotoxicity Assay in MT-4 Cells Assays were performed as above except uninfected MT-4 cells were added to each well containing test compound. In addition, 10 μM puromycin was added to the last column of each assay plate to assess a base level of cytotoxicity.” for “fits.”

[3] = Cytotoxicity assay in MT-4 cells; conditions: human, uninfected MT-4 cells, 5 days, Cell Titer Glo; read-out: CC50
Experimental: as §1, with “fits. Cytotoxicity Assay in MT-4 Cells Assays were performed as above except uninfected MT-4 cells were added to each well containing test compound. In addition, 10 μM puromycin was added to the last column of each assay plate to assess a base level of cytotoxicity.” for “fits.”

[4] = tested on: pLai RLuc reporter virus; assay: HIV MT-4 serum shift antiviral reporter assay; conditions: Human immunodeficiency virus 1, 72 h
Experimental: To quantify the amount of protein binding to human serum, compounds were serially diluted (1:3) in DMSO and acoustically transferred onto 384-well assay plates via a Labcyte ECHO robot. Each plate contained up to 8 test compounds, including negative and positive controls, (DMSO, 5 μM AZT respectively). Assay plates were prepared in duplicate, and tested in either CCM (cell culture media) or HS/CCM (human serum/cell culture media). MT-4 cells were first pre-infected with pLai RLuc reporter virus for 2 h at 37° C., then further diluted in either CCM (RPMI media, 10% FBS, 1% P/S) or HS/CCM (RPMI media, 10% FBS, 50% HS, 1% P/S), and subsequently added to each plate using a Biotek Micro Flow dispenser. After a 72-h incubation in a humidified and temperature controlled incubator (37° C.), Renilla Glo (Promega) was added to all assay plates and chemiluminescence read using an Envision plate-reader. EC50 values were defined as the compound concentration that causes a 50% decrease in luminescence signal, and were calculated using a sigmoidal dose-response model to generate curve fits. To determine the amount of protein binding, EC50 fold shifts (or EC50 shifts) were calculated by dividing EC50 (HS/CCM)/EC50 (CCM).

[5] = Human immunodeficiency virus 1, IIIB, MT4, 120 h
[6] = read-out: RLUC 50% HS (nM), HS/CCM: 50% human serum, 72 h, Renilla Glo
[7] = read-out: RLUC CCM (nM), cell culture media (RPMI, 10% FBS), 72 h, Renilla Glo

Row | pEC50 [1] | SMILES | CC50 [2] | pEC50 [1, 5] | CC50 at 5 days [3] | EC50 [4, 6] | EC50 [4, 7]
1 | 8.80 | C[C@@H]1C(F)=C[C@H](C)N2CN1n1cc(C(=O)NCc3c(F)cc(F)cc3F)c(=O)c(O)c1C2=O [Example C36, (1S,2R,5S)-3-fluoro-8-hydroxy-2,5-dimethyl-7,9-dioxo-N-(2,4,6-trifluorobenzyl)-2,5,7,9-tetrahydro-1,6-methanopyrido[1,2-b][1,2,5]triazonine-10-carboxamide] | 16600 nM | – | – | – | –
2 | – | CO[C@@H]1C[C@@H](C)N2CN(C(=O)c3c(O)c(=O)c(C(=O)NCc4c(F)cc(F)cc4F)cn32)[C@H]1C [Example C33, (1S,2R,4R,5S)-8-hydroxy-4-methoxy-2,5-dimethyl-7,9-dioxo-N-(2,4,6-trifluorobenzyl)-2,3,4,5,7,9-hexahydro-1,6-methanopyrido[1,2-b][1,2,5]triazonine-10-carboxamide] | – | 8.40 | 32900 nM | 4.3 nM | 1.8 nM
3 | – | C[C@H]1CC[C@@H](C(F)F)N2CN1C(=O)c1c(O)c(=O)c(C(=O)NCc3ccc(F)cc3F)cn12 [Example C81, (1S,2S,5S)—N-(2,4-difluorobenzyl)-2-(difluoromethyl)-8-hydroxy-5-methyl-7,9-dioxo-2,3,4,5,7,9-hexahydro-1,6-methanopyrido[1,2-b][1,2,5]triazonine-10-carboxamide] | – | 8.82 | 13700 nM | 723 nM | 0.48 nM
4 | – | C[C@@H]1C=CC(C)(C)N2CN1n1cc(C(=O)NCc3ccc(F)cc3F)c(=O)c(O)c1C2=O [Example C90, (1S,2R)—N-(2,4-difluorobenzyl)-8-hydroxy-2,5,5-trimethyl-7,9-dioxo-2,5,7,9-tetrahydro-1,6-methanopyrido[1,2-b][1,2,5]triazonine-10-carboxamide] | – | 8.70 | 47100 nM | 91.9 nM | 0.35 nM
5 | – | COC[C@@H]1CC[C@H](C)N2CN1n1cc(C(=O)NCc3ccc(F)cc3F)c(=O)c(O)c1C2=O [Example C83, (1S,2S,5S)—N-(2,4-difluorobenzyl)-8-hydroxy-2-(methoxymethyl)-5-methyl-7,9-dioxo-2,3,4,5,7,9-hexahydro-1,6-methanopyrido[1,2-b][1,2,5]triazonine-10-carboxamide] | – | 8.44 | 30500 nM | 261 nM | 1.97 nM
6 | – | C[C@@H]1C/C=C\CN2CN1n1cc(C(=O)NCc3c(F)cc(F)cc3F)c(=O)c(O)c1C2=O [Example C16, (1S,2R,Z)-9-hydroxy-2-methyl-8,10-dioxo-N-(2,4,6-trifluorobenzyl)-3,6,8,10-tetrahydro-2H-1,7-methanopyrido[1,2-b][1,2,5]triazecine-11-carboxamide] | – | 8.96 | 11400 nM | 19.4 nM | 0.32 nM
7 | – | C[C@@H]1C[C@@H](F)[C@H](C)N2CN1n1cc(C(=O)NCc3ccc(F)cc3F)c(=O)c(O)c1C2=O [Example C53, (1S,2R,4R,5S)—N-(2,4-difluorobenzyl)-4-fluoro-8-hydroxy-2,5-dimethyl-7,9-dioxo-2,3,4,5,7,9-hexahydro-1,6-methanopyrido[1,2-b][1,2,5]triazonine-10-carboxamide] | – | 8.89 | 9010 nM | 350 nM | 0.55 nM
8 | – | C[C@@H]1CC[C@@H](C)N2CN1C(=O)c1c(O)c(=O)c(C(=O)NCc3c(F)cc(F)cc3F)cn12 [Example C65, (1S,2R,5R)-8-hydroxy-2,5-dimethyl-7,9-dioxo-N-(2,4,6-trifluorobenzyl)-2,3,4,5,7,9-hexahydro-1,6-methanopyrido[1,2-b][1,2,5]triazonine-10-carboxamide] | – | 8.74 | 15400 nM | 63.8 nM | 0.44 nM
9 | – | C[C@H]1C=C[C@@]2(CCOC2)N2CN1C(=O)c1c(O)c(=O)c(C(=O)NCc3c(F)cc(F)cc3F)cn12 [Example C85, (1′S,3R,5′S)-8′-hydroxy-5′-methyl-7′,9′-dioxo-N-(2,4,6-trifluorobenzyl)-4,5,7′,9′-tetrahydro-2H,5′H-spiro[furan-3,2′-[1,6]methanopyrido[1,2-b][1,2,5]triazonine]-10′-carboxamide] | 29000 nM | – | – | – | –
10 | – | C[C@@H]1C=C(F)[C@H](C)N2CN1n1cc(C(=O)NCc3c(F)cc(F)cc3F)c(=O)c(O)c1C2=O [Example C55, (1S,2R,5S)-4-fluoro-8-hydroxy-2,5-dimethyl-7,9-dioxo-N-(2,4,6-trifluorobenzyl)-2,5,7,9-tetrahydro-1,6-methanopyrido[1,2-b][1,2,5]triazonine-10-carboxamide] | – | 8.89 | 29500 nM | 515 nM | 0.71 nM
11 | – | COC[C@@H]1C=C[C@H](C)N2CN1n1cc(C(=O)NCc3ccc(F)cc3F)c(=O)c(O)c1C2=O [Example C82, (1S,2S,5S)—N-(2,4-difluorobenzyl)-8-hydroxy-2-(methoxymethyl)-5-methyl-7,9-dioxo-2,5,7,9-tetrahydro-1,6-methanopyrido[1,2-b][1,2,5]triazonine-10-carboxamide] | – | 8.89 | 16800 nM | 75 nM | 0.73 nM
12 | – | C[C@@H]1CCCCN2CN1n1cc(C(=O)NCc3c(F)cc(F)cc3F)c(=O)c(O)c1C2=O [Example C17, (1S,2R)-9-hydroxy-2-methyl-8,10-dioxo-N-(2,4,6-trifluorobenzyl)-3,4,5,6,8,10-hexahydro-2H-1,7-methanopyrido[1,2-b][1,2,5]triazecine-11-carboxamide] | – | 9.04 | 11200 nM | 7.12 nM | 0.16 nM
13 | – | CO[C@H]1C[C@@H](C)N2CN(C[C@H]1OC)C(=O)c1c(O)c(=O)c(C(=O)NCc3ccc(F)cc3F)cn12 [Example C39, (1S,2R,4S,5R)—N-(2,4-difluorobenzyl)-9-hydroxy-4,5-dimethoxy-2-methyl-8,10-dioxo-3,4,5,6,8,10-hexahydro-2H-1,7-methanopyrido[1,2-b][1,2,5]triazecine-11-carboxamide] | – | 8.46 | 20300 nM | 4.7 nM | 0.93 nM
14 | – | C[C@@H]1C=CCN2CN1n1cc(C(=O)NCc3c(F)cc(F)cc3F)c(=O)c(O)c1C2=O [Example C70, (1S,2R)-8-hydroxy-2-methyl-7,9-dioxo-N-(2,4,6-trifluorobenzyl)-2,5,7,9-tetrahydro-1,6-methanopyrido[1,2-b][1,2,5]triazonine-10-carboxamide] | – | 8.92 | 11600 nM | 11.5 nM | 0.54 nM
15 | – | CC[C@H]1C=C[C@H](C)N2CN1n1cc(C(=O)NCc3c(F)cc(F)cc3F)c(=O)c(O)c1C2=O [Example C106, (1S,2S,5S)-2-ethyl-8-hydroxy-5-methyl-7,9-dioxo-N-(2,4,6-trifluorobenzyl)-2,5,7,9-tetrahydro-1,6-methanopyrido[1,2-b][1,2,5]triazonine-10-carboxamide] | – | 8.77 | 18400 nM | 107 nM | 0.22 nM
16 | – | C[C@H]1CCCCN2CN1n1cc(C(=O)NCc3ccc(F)cc3F)c(=O)c(O)c1C2=O [Example C42, (1R,2S)—N-(2,4-difluorobenzyl)-9-hydroxy-2-methyl-8,10-dioxo-3,4,5,6,8,10-hexahydro-2H-1,7-methanopyrido[1,2-b][1,2,5]triazecine-11-carboxamide] | – | 8.66 | 7030 nM | 1880 nM | 2.47 nM
